Patent US12090122B2, “Curcumin-based compositions and methods of use thereof” (priority 2017, dated 2024)

How the values were obtained:
Type in all cases: cell-based
NFkB-p65 = experiment: Western blot of cytoplasmic and nuclear NFkB-p65 protein levels (nucleotranslocation) in LPS-induced BV2 cells; conditions: 22.0 μg/ml, 30 min pre-treatment, LPS induction, FIGS. 3 and 4
Description: (§1) Example 2—Western Blot Analysis of Cytoplasmic and Nuclear MSK1 Levels. Western blot analysis was performed in multiple varying formats before optimization was achieved. The BV2 microglia cell line was cultured in Dulbecco's Modified Eagle's Medium (DMEM)—complete medium. The complete medium consisted of DMEM, 1% Ampicillin, and 10% Fetal Bovine Serum (FBS). BV2 microglia cells, at a cell count of approximately 2×10^6, were seeded in each well (6 wells per plate) with 2.0 ml complete medium and cultured overnight in a ThermaForma HepaFilter Series II CO2 Incubator at 37° Celsius. Upon establishing confluence, subconfluent cells were washed out and the wells were prepared with drug pre-treatment after overnight incubation.
(§2) The test drugs (curcuminoids) were procured as follows: curcumin I research standard (03926) (ChromaDex Irvine, CA USA) (97.7% purity); curcumin II research standard (04230) (ChromaDex Irvine, CA USA) (97.3%); curcumin III research standard (B6938) (Sigma-Aldrich St. Louis, Missouri, USA) (97.7% purity); curcumin extract (curcumin I—77.7%, curcumin II—16.9%, curcumin III—0.9%) research standard (03928) (ChromaDex Irvine, CA USA) (95.3% purity); and Lipopolysaccharide (LPS) from E. Coli (L2630) (Sigma-Aldrich St. Louis, Missouri, USA).
(§3) Curcuminoids are not soluble in aqueous medium due to their hydrophobic characteristic. However, curcuminoid extracts are soluble in polar organic solvents, such as DMSO and acetone. In this Example, each curcuminoid preparation was first dissolved in DMSO. DMSO was used in the drug preparation at 0.2%. The drug/DMSO solution was subsequently dissolved in DMEM to achieve a final drug concentration for each curcuminoid preparation tested—22.0 μg/ml curcuminoid. […]
(§4) Total protein concentration for each fraction was determined using a Bio Rad Protein Assay that is based on the Bradford Assay (dye-binding method). […]
(§5) The targets analyzed in the Western Blot included NFkB-p65 and its nucleocytoplasmic translocation, as well as kinases (including MSK1) and their covalent modifications upstream of and involved in the regulation of NFkB. […]

[1] = system: NFkB p65 phosphorylated at the serine 276 phosphosite; experiment: Western blot of NFkB-p65 phosphorylated at serine 276 in LPS-induced BV2 cells; conditions: 22.0 μg/ml, 30 min pre-treatment, LPS induction, cytoplasmic and nuclear, FIGS. 5 and 6
Description: as §1, §2, §3, §4, §5

[2] = system: MSK1 phosphorylated at the serine 376 phosphosite; experiment: Western blot of MSK1 phosphorylated at serine 376 in LPS-induced BV2 cells; conditions: 22.0 μg/ml, 30 min pre-treatment, LPS induction, FIGS. 9 and 10
Description: as §1, with “incubation. […]” for “incubation.”
as §4, §5

## O=C(/C=C/c1ccc(O)cc1)CC(=O)/C=C/c1ccc(O)cc1 [curcumin III, (1E,6E)-1,7-bis(4-hydroxyphenyl)hepta-1,6-diene-3,5-dione]
NFkB-p65
  NFkB-p65 nucleotranslocation (cytosolic and nuclear NFkB-p65 levels relative to total protein): not significantly inhibited
[1]
  NFkB-p65 serine 276 phosphorylation: moderately inhibit

## COc1cc(/C=C/C(=O)CC(=O)/C=C/c2ccc(O)cc2)ccc1O [curcumin II, (1E,6E)-1-(4-Hydroxy-3-methoxyphenyl)-7-(4-hydroxyphenyl)hepta-1,6-diene-3,5-dione]
NFkB-p65
  NFkB-p65 nucleotranslocation (cytosolic and nuclear NFkB-p65 levels relative to total protein): not significantly inhibited
[1]
  NFkB-p65 serine 276 phosphorylation: moderately inhibit
[2]
  MSK1 serine 376 phosphorylation: inhibit

## COc1cc(/C=C/C(=O)/C=C(O)/C=C/c2ccc(O)c(OC)c2)ccc1O [curcumin I, (1E,6E)-1,7-Bis(4-hydroxy-3-methoxyphenyl)-1,6-heptadiene-3,5-dione, reference compound]
NFkB-p65
  NFkB-p65 nucleotranslocation (cytosolic and nuclear NFkB-p65 levels relative to total protein): not significantly inhibited
[1]
  NFkB-p65 serine 276 phosphorylation: moderately inhibit
